From patent publication US4533541A, “Tin-117m-labeled stannic (Sn^4+) chelates” (The United States of America as represented by the United …, priority 1983, dated 1985)
Where two headings read alike, the source gives them in different places.

Conditions: mouse, in vivo; for Blood, % Dose per Gram / Bone, % Dose per Gram / Kidneys, % Dose per Gram / Liver, % Dose per Gram / % Dose remaining in whole body: iv
Description: Tissue distribution studies were done in normal BNL mice. All animals were injected with the appropriate radiopharmaceutical intravenously. A number of time periods up to 7 days after injection were used to collect the data.
Comparative studies were conducted using Sn^2+ chloride (pH 2 and 7), Sn^4+ chloride (pH 2), and Sn(2+ and 4+)-labeled chelates (MDP, DTPA, EHDP, and PYP).
Tissue distribution in mice of Sn(2+ and 4+) chloride (pH 2 and 7), and of the stannous and stannic chelates of MDP, DTPA, PYP, and EHDP is shown in Table 1.

In the case of `O.O.O=P([O-])([O-])CP(=O)([O-])[O-].[99Tc+4]` [^99m Tc-MDP], the “Ratio, bone to Blood” value (30 min) is reported as 29, the “Ratio, bone to Kidney” value (30 min) is reported as 8.1 and the “Ratio, bone to Liver” value (30 min) is reported as 8.4. For the same molecule, the “Ratio, bone to Muscle” value (30 min) was 93, the “Ratio, bone to Blood” value (180 min) was 85 and the “Ratio, bone to Kidney” value (180 min) was 11. The “Ratio, bone to Liver” value (180 min) was 13, the “Ratio, bone to Muscle” value (180 min) was 270 and the “Ratio, bone to Blood” value (1440 min) was 205. The “Ratio, bone to Kidney” value (1440 min) was 18, the “Ratio, bone to Liver” value (1440 min) was 14 and the “Ratio, bone to Muscle” value (1440 min) was 375. For the same molecule, the “Blood, % Dose per Gram” value (0.5 h) was 0.41 % Dose per Gram, the “Bone, % Dose per Gram” value (0.5 h) was 11.80 % Dose per Gram and the “Kidneys, % Dose per Gram” value (0.5 h) was 1.46 % Dose per Gram. The “Liver, % Dose per Gram” value (0.5 h) was 1.41 % Dose per Gram, the “% Dose remaining in whole body” value (30 min) was 33.5 % Dose and the “% Dose remaining in whole body” value (180 min) was 30.2 % Dose. For the same molecule, the “Blood, % Dose per Gram” value (3 h) was 0.14 % Dose per Gram, the “Bone, % Dose per Gram” value (3 h) was 12.30 % Dose per Gram and the “Kidneys, % Dose per Gram” value (3 h) was 1.11 % Dose per Gram. The “Liver, % Dose per Gram” value (3 h) was 0.97 % Dose per Gram, the “% Dose remaining in whole body” value (1440 min) was 22.5 % Dose and the “Blood, % Dose per Gram” value (24 h) was 0.05 % Dose per Gram. For the same molecule, the “Bone, % Dose per Gram” value (24 h) was 10.30 % Dose per Gram, the “Kidneys, % Dose per Gram” value (24 h) was 0.57 % Dose per Gram and the “Liver, % Dose per Gram” value (24 h) was 0.73 % Dose per Gram.
